Test results: patent US7569572B2, “Pyrazolo[4,3-D]pyrimidines” (Pfizer Inc, priority 2004, dated 2009)
Counter-ions that a name gives are not always drawn.

molecular target: T1, human platelet PDE5 (Homo sapiens, UniProt O76074); test: Method B: PDE-5 Inhibition Scintillation Proximity Assay (SPA) - Human Platelet (modified protocol of Method A); format: biochemical; conditions: cGMP substrate 50 nM, PDE5 isolated from human platelets
T1 construct: utilizes PDE5 isolated from human platelets; from tissue; host or cells: human platelets
Experimental: Method B: PDE-5 Inhibition Scintillation Proximity Assay (SPA)—Human Platelet
This method is a modified protocol of Method A.
The assay measures the inhibition of human platelet PDE5 enzyme activity by a test compound in an in vitro assay that utilizes PDE5 isolated from human platelets. PDE5 catalyzes the hydrolysis of [^3H]cGMP to the 5′ nucleotide [^3H]GMP. [^3H]GMP binds to yttrium silicate SPA beads and is detected by scintillation counting. The inhibition of enzyme activity is calculated relative to total PDE5 activity of uninhibited controls.
PDE5 IC50 Assay: 96-Well Microtiter Plate Format
Buffer A: 20 mM Tris-HCl, 5 mM MgCl2, pH 7.4
Buffer B: 2 mg/ml BSA in Buffer A (enzyme buffer)
cGMP substrate: Final concentration of 50 nM in assay
The amount of ^3H-labeled substrate added depends upon the specific activity of [^3H]cGMP, and it is diluted in Buffer A.
PDE enzyme: Prepared in Buffer B. The dilution factor is determined by enzyme activity.
SPA beads: 4 mg/ml suspension prepared in dH2O.
Stocks of standard and test compounds are prepared at 2 mM in 100% DMSO. Compounds are serially diluted in separate dilution plates using an 8-point ⅕ log dilution format such that the starting concentration in the assay is 2 μM for an initial IC50 screen. 27 μl of Buffer A are added to the wells of the assay plates. From the dilution plates, 3 μl of diluted compounds are delivered in duplicate or 3 μl of 100% DMSO (for positive and negative controls) are added. 30 μl of enzyme are added. For the negative control wells, Buffer B is substituted in place of the enzyme. 30 μl of labeled substrate are added to all wells.
After incubating for 60 minutes at room temperature, the reaction is stopped with the addition of 30 μl of the yttrium silicate beads. These beads are dense and require constant agitation while being added to the plate. The plates are sealed and shaken on a plate shaker for fifteen minutes to allow the beads to bind the GMP product.
After allowing the beads to settle for 30 minutes, plates are read on a NXT TopCount and data is analyzed in the Bioassay Solver application. Percent inhibition values are calculated using the means of the 0% and 100% controls on each plate. The estimates of the 4-parameters of the logistic, sigmoid dose-response model are then calculated using the well-level percent inhibition values for each compound. These estimates are used to calculate the concentration that corresponds to 50% inhibition.

Row | Compound | IC50 [nM]
1 | FC(F)(F)COCCn1nc(CN2CCNCC2)c2nc(N3CCNCC3)nc(Nc3ccncn3)c21 [Example 41, 5-Piperazin-1-yl-3-(piperazin-1-ylmethyl)-N-pyrimidin-4-yl-1-[2-(2,2,2-trifluoroethoxy)ethyl]-1H-pyrazolo[4,3-d]pyrimidin-7-amine trifluoroacetate] | 1.8
2 | C[C@@H]1CN(c2nc(Nc3ccncn3)c3c(n2)c(CN2CCOCC2)nn3CCOCC(F)(F)F)CCN1 [Example 42, 5-[(3R)-3-Methylpiperazin-1-yl]-3-(morpholin-4-ylmethyl)-N-pyrimidin-4-yl-1-[2-(2,2,2-trifluoroethoxy)ethyl]-1H-pyrazolo[4,3-d]pyrimidin-7-amine trifluoroacetate] | 0.32
3 | FC(F)(F)COCCn1nc(CN2CCOCC2)c2nc(N3CCNCC3)nc(Nc3ccncn3)c21 [Example 43, 3-(Morpholin-4-ylmethyl)-5-piperazin-1-yl-N-pyrimidin-4-yl-1-[2-(2,2,2-trifluoroethoxy)ethyl]-1H-Pyrazolo[4,3-d]pyrimidin-7-amine trifluoroacetate] | 0.21
4 | CCN(C)c1nc(Nc2ccncn2)c2c(n1)c(CN1CCSCC1)nn2CCOCC(F)(F)F [Example 44, N^5-Ethyl-N^5-methyl-N^7-pyrimidin-4-yl-3-(thiomorpholin-4-ylmethyl)-1-[2-(2,2,2-trifluoroethoxy)ethy]-1H-pyrazolo[4,3-d]pyrimidine-5,7-diamine trifluoroacetate] | 0.79
5 | C[C@@H]1CN(c2nc(Nc3ccncn3)c3c(n2)c(CN2CCCCC2)nn3CCOCC(F)(F)F)CCN1 [Example 45, 5-[(3R)-3-Methylpiperazin-1-yl]-3-(piperidin-1-ylmethyl)-N-pyrimidin-4-yl-1-[2-(2,2,2-trifluoroethoxy)ethyl]-1H-pyrazolo[4,3-d]pyrimidin-7-amine trifluoroacetate] | 1.25
6 | C[C@@H]1CN(c2nc(Nc3ccncn3)c3c(n2)c(CN2CCSCC2)nn3CCOCC(F)(F)F)CCN1 [Example 46, 5-[(3R)-3-methylpiperazin-1-yl]-N-pyrimidin-4-yl-3-(thiomorpholin-4-ylmethyl)-1-[2-(2,2,2-trifluoroethoxy)ethyl]-1H-pyrazolo[4,3-d]pyrimidin-7-amine trifluoroacetate] | 0.14
7 | C[C@@H]1CN(c2nc(Nc3ccncn3)c3c(n2)c(CN2CCN(C)CC2)nn3CCOCC(F)(F)F)CCN1 [Example 47, 5-[(3R)-3-Methylpiperazin-1-yl]-3-[(4-methylpiperazin-1-yl)methyl]-N-pyrimidin-4-yl-1-[2-(2,2,2-trifluoroethoxy)ethyl]-1H-pyrazolo[4,3-d]pyrimidin-7-amine trifluoroacetate] | 0.47
8 | CCN(CC)Cc1nn(CCOCC(F)(F)F)c2c(Nc3ccncn3)nc(N(CC)CC)nc12 [Example 48, 3-[(Diethylamino)methyl]-N^5,N^5-diethyl-N^7-pyrimidin-4-yl-1-[2-(2,2,2-trifluoroethoxy)ethyl]-1H-pyrazolo[4,3-d]pyrimidine-5,7-diamine trifluoroacetate] | 7.39
9 | C[C@@H]1CN(c2nc(Nc3ccncn3)c3c(n2)c(CN2CCS(=O)(=O)CC2)nn3CCOCC(F)(F)F)CCN1 [Example 49, 3-[(1,1-Dioxidothiomorpholin-4-yl)methyl]-5-[(3R)-3-methylpiperazin-1-yl]-N-pyrimidin-4-yl-1-[2-(2,2,2-trifluoroethoxy)ethyl]-1H-pyrazolo[4,3-d]pyrimidin-7-amine trifluoroacetate] | 0.58
10 | FC(F)(F)CNCc1nn(CCOCC(F)(F)F)c2c(Nc3ccncn3)nc(N3CCNCC3)nc12 [Example 50, 1-(2-(2,2,2-trifluoroethoxy)ethyl)-3-((2,2,2-trifluoroethylamino)methyl)-5-(piperazin-1-yl)-N-(pyrimidin-4-yl)-1H-pyrazolo[4,3-d]pyrimidin-7-amine trifluoroacetate] | 1.06
